# Patent US20240180822A1, “NON-NANOPARTICULATE APPLICATION FORMS OF MACROLIDES” (Nucleus Medical GmbH, priority 2021, published 2024)
# Experiment: saturation solubility of tacrolimus in different solvents (HPLC in the supernatant)
# Assay type: physicochemical
# Details: all tested organic solvents
# Procedure: Tacrolimus was dissolved in an organic solvent. Particularly, the saturation solubility of tacrolimus in different organic solvents was tested. Crystalline active ingredient was added to a defined amount of solvent at room temperature while stirring until an insoluble sediment was formed. After filtration, the concentration of active ingredient was quantified by HPLC in the supernatant.
structure (smiles),measurement,value
C=CC[C@@H]1/C=C(\C)C[C@H](C)C[C@H](OC)[C@H]2O[C@@](O)(C(=O)C(=O)N3CCCC[C@H]3C(=O)O[C@H](/C(C)=C/[C@@H]3CC[C@@H](O)[C@H](OC)C3)[C@H](C)[C@@H](O)CC1=O)[C@H](C)C[C@@H]2OC [Tacrolimus],solubility in organic solvents,soluble in all tested organic solvents
